Patent EP4166651A1, “METHODS AND COMPOSITION TO INCREASE CELLULAR GLUTATHIONE LEVEL” (priority 2021, dated 2023)
Where a SMILES comes first, the peptide text is derived from it. Bridges are numbered along the chain shown (N, C = ends). Roman numbers before positions name the chains, in order.

What was measured:
[1] = cell culture media relevant pH of about 7; cited from earlier work
[2] = test system: human bone marrow stromal cells, mesenchymal stem cells (MSC)
Procedure: The assay was performed with human bone marrow stromal cells, mesenchymal stem cells (MSC). In a first step, the cells were seeded in a white 96-well cell culture plate and incubated for 24 h in a CO2-Incubator (37°C, 5% CO2, 95% humidity) at a cell density of 5.000 cells/well. After the resting time of 24 hours, diluted samples containing test compounds were added to the plate in equal volumes of 50 µl to reach the desired concentrations of interest and a final volume of 100 µl per well. Samples of L-cysteine were compared to Cys-peptides and each sample was tested in triplicates. The control was rested in medium without sample. […] The viability was determined based on the quantification of the ATP present in the cells per well. Through the luminescence detection of luciferase using a multiplate reader the ATP amount was measured and quantified. Resulting luminescence signal of samples was normalized to the signal of control cells. […] The viability was determined based on the quantification of the ATP present in the cells per well. Through the luminescence detection of luciferase using a multiplate reader the ATP amount was measured and quantified. Resulting luminescence signal of samples was normalized to the signal of control cells.

[3] = test system: Chinese hamster ovary cells (CHO-K1); test: In vitro Glutathione assay (GSH/GSSG-Glo) after H2O2-induced oxidative stress; assay type: cell-based; conditions: 24 h pre-incubation or constant incubation, 100 µM H2O2 for 20 min, with and without FBS, compared to medium control not treated with H2O2
Procedure: The addition of Cys-peptides and mixtures of Cys-peptides with L-cysteine and L-cystine to the cell culture medium was evaluated regarding their influence on the intracellular glutathione level. Oxidative stress was simulated by the addition of hydrogen peroxide solution. The assay was performed with Chinese hamster ovary cells (CHO-K1). […] In relation to the oxidative stress conditions the cells were pre-incubated or constantly incubated with Cys-peptide samples. […] The samples (Ala-Cys)2 and (Lys-Cys)2 were dissolved in culture medium, either containing 10% fetal bovine serum (FBS) or medium without FBS, to perform the assay setup in presence and absence of FBS during the stress phase. […] This leads to luminescence signals which were measured in a multiplate reader. To calculate the GSH concentrations, a dilution series of a glutathione standard was performed, and luminescence signals measured. Relative luminescence signals were plotted against GSH concentrations. After subtracting the background signals, GSH concentration in samples was calculated based on the linear standard curve. […] After luminescence signals were measured, the intracellular glutathione concentration of cells incubated with Cys-peptides and mixtures and treated with 100 µM H2O2 were compared to a medium control, which was not treated with H2O2.

| SMILES | solubility [1] | viability of MSCs [2] | intracellular glutathione level [3] |
| --- | --- | --- | --- |
| N[C@@H](CSSC[C@H](N)C(=O)O)C(=O)O [cystine, L-cystine] | around 1 mM | – | – |
| C[C@H](N)C(=O)N[C@@H](CSSC[C@H](NC(=O)[C@H](C)N)C(=O)O)C(=O)O [(Ala-Cys)2, N,N'-di-L-alanyl-L-cystine] (I: H-Ala-Cys-OH / II: H-Ala-Cys-OH; disulfide I:2-II:2) | – | does not have a negative effect on the viability | – |
| N[C@@H](CS)C(=O)O [L-Cysteine] | – | negatively affects viability | increase intracellular glutathione concentration |
